The results in this text go back to ChEMBL document CHEMBL3297665, “Case Study of Small Molecules As Antimalarials: 2-Amino-1-phenylethanol (APE) Derivatives” (ACS Med Chem Lett, 2014).

Each structure is given as a SMILES string. Active and inactive are the calls of the source. No cut-off for these calls is given here.

One assay relates to Plasmodium falciparum. Nature of the assay: Antiplasmodial activity against ring stage Plasmodium falciparum 3D7A infected in erythrocytes incubated for 24 hrs prior to [3H]hypoxanthine incorporation measured after 24 hrs. In kind it is functional, organism-based.
Assay [1] in a line: Inhibition of beta-hematin formation.
A short description of assay [2]: Inhibition of beta-hematin formation up to 100 uM.
The next assay relates to Plasmodium berghei. Nature of the assay: Antiplasmodial activity against Plasmodium berghei infected in po dosed mouse assessed as reduction in parasitemia administered qd for 2 days relative to vehicle-treated control. In kind it is functional.

For `C[C@H](Nc1ccccc1)[C@@H](O)c1ccc(C(F)(F)F)cc1` (relative stereo), in the assay on Plasmodium falciparum (Plasmodium falciparum, 3D7A), the 50% inhibitory concentration (IC50) is 5000 nM.
In the assay on Plasmodium falciparum, `CCC(C)(C)N[C@@H](C)[C@@H](O)c1ccc(Cl)c(Cl)c1` (racemic) returned a half-maximal inhibitory concentration (IC50) of 200 nM.
In the assay on Plasmodium falciparum, `CCC(C)(C)N[C@@H](C)[C@@H](O)c1ccc(Cl)c(Cl)c1` gave an IC50 of 500 nM.
In turn, `CC(C)(C)NCC(O)c1ccc(Cl)c(Cl)c1` (racemic) yielded an IC50 in the assay with Plasmodium falciparum (Plasmodium falciparum, 3D7A) greater than 5000 nM.
In assay [1], `O[C@@H](c1cc(C(F)(F)F)nc2c(C(F)(F)F)cccc12)[C@H]1CCCCN1` (relative stereo) [(S,R)-MEFLOQUINE] yielded an IC50 of 12200 nM.
The molecule `OC(CNC1CCCCC1)c1ccc(Cl)c(Cl)c1` (racemic) had a half-inhibitory concentration (IC50) in the assay with Plasmodium falciparum (Plasmodium falciparum, 3D7A) of 720 nM.
As for `CCC(C)(C)N[C@H](C)[C@H](O)c1ccc(C(F)(F)F)cc1`, in the assay with Plasmodium falciparum (Plasmodium falciparum, 3D7A), the half-maximal inhibitory concentration (IC50) is 500 nM.
Regarding `CCC(C)(C)N(C)[C@@H](C)[C@@H](O)c1ccc(C(F)(F)F)cc1` (relative stereo), in the assay on Plasmodium falciparum (Plasmodium falciparum, 3D7A), the IC50 was greater than 5000 nM.
In the assay on Plasmodium falciparum, `CCC(C)(C)N[C@@H](C)[C@@H](O)c1ccc(C(F)(F)F)cc1` had a half-maximal inhibitory concentration (IC50) of 1400 nM.
The molecule `Cc1ccc2ccccc2c1CNCC(O)c1ccc(Cl)c(Cl)c1` (racemic) showed a half-inhibitory concentration (IC50) with Plasmodium falciparum (Plasmodium falciparum, 3D7A) greater than 5000 nM.
Still for that read-out and setting: then `CC(NC(C)(C)C)C(O)c1ccccc1` (racemic), with greater than 5000 nM.
On to `C[C@H](NC(C)(C)C)[C@@H](O)c1ccc(Cl)c(C(F)(F)F)c1` (racemic) [listing 1 of 2 here], for which, in assay [2], the inhibition result is “inactive”.
`C[C@@H](NC(C)(C)C)[C@H](O)c1ccc(Cl)c(C(F)(F)F)c1` gave an IC50 in the assay with Plasmodium falciparum (Plasmodium falciparum, 3D7A) of 300 nM.
Still for that read-out and setting: then `C[C@H](NC(C)(C)C)[C@@H](O)c1ccc(Cl)c(Cl)c1` (racemic), with 900 nM; and `CCC(C)(C)N[C@@H](C)[C@H](O)c1ccc(Cl)c(Cl)c1` (racemic), with 3900 nM.
`CCC(C)(C)N[C@@H](C)[C@H](O)c1ccc(C(F)(F)F)cc1` (racemic) yielded an IC50 in the assay with Plasmodium falciparum (Plasmodium falciparum, 3D7A) greater than 5000 nM.
For the molecule `C[C@H](NC(C)(C)C)[C@H](O)c1ccc(Cl)c(Cl)c1` (racemic), the IC50 in the assay with Plasmodium falciparum (Plasmodium falciparum, 3D7A) is greater than 5000 nM.
`OC(CNC1CCCCCCC1)c1ccc(Cl)c(Cl)c1` (racemic) gave a 50% inhibitory concentration (IC50) in the assay on Plasmodium falciparum (Plasmodium falciparum, 3D7A) of 70 nM.
Same read-out and setting: with `C[C@H](N)[C@@H](O)c1ccc(C(F)(F)F)cc1` (relative stereo) the figure was greater than 5000 nM.
In the assay on Plasmodium falciparum, `C[C@H](NC(C)(C)C)[C@@H](O)c1ccc(Cl)c(C(F)(F)F)c1` registered a 50% inhibitory concentration (IC50) of 600 nM.
Turning to `C[C@H](NC1CCCCC1)[C@@H](O)c1ccc(C(F)(F)F)cc1` (relative stereo), half-maximal inhibition in the assay on Plasmodium falciparum (Plasmodium falciparum, 3D7A) (IC50) required 5000 nM.
As for `OC(CNC1CCCCCC1)c1ccc(Cl)c(Cl)c1` (racemic), inhibition in the assay on Plasmodium falciparum (Plasmodium falciparum, 3D7A) was half-maximal at 160 nM (IC50).
As for `C[C@H](NC(C)(C)C)[C@@H](O)c1ccc(Cl)c(C(F)(F)F)c1` (racemic) [listing 2 of 2 here], in the assay with Plasmodium berghei, the “inhibition (INH)” value was determined as 76%. The molecule also gave an IC50 with Plasmodium falciparum (Plasmodium falciparum, 3D7A) of 500 nM.
`CC(NC(C)(C)C)C(O)c1ccc(Cl)c(C(F)(F)F)c1` (racemic) had a 50% inhibitory concentration (IC50) in the assay on Plasmodium falciparum (Plasmodium falciparum, 3D7A) of 4300 nM. In other words, the single-digit micromolar range.
For the molecule `CCC(C)(C)N[C@@H](C)[C@@H](O)c1ccc(C(F)(F)F)cc1` (racemic) [listing 1 of 2 here], the “inhibition (INH)” value with Plasmodium berghei was 64%. The same molecule displayed a half-maximal inhibitory concentration (IC50) in the assay with Plasmodium falciparum of 400 nM.
For `CCC(C)(C)N[C@@H](C)[C@@H](O)c1ccc(C(F)(F)F)cc1` (racemic) [listing 2 of 2 here], in assay [2], the inhibition entry was “inactive”.
For `OC(CNCc1ccccc1)c1ccc(Cl)c(Cl)c1` (racemic), half-maximal inhibition with Plasmodium falciparum (Plasmodium falciparum, 3D7A) (IC50) was put at 700 nM.
Still for that read-out and setting: with `CCC(C)(C)N[C@H](C)[C@H](O)c1ccc(Cl)c(Cl)c1` the figure was 400 nM.

As usually defined, the IC50 is the midpoint of a concentration-inhibition curve.
